The values that follow come from ChEMBL document CHEMBL1799910, “Optimization of 1,2,3,4-tetrahydroacridin-9(10H)-ones as antimalarials utilizing structure-activity and structure-property relationships” (J Med Chem, 2011).

Data set [1] has as its system Plasmodium falciparum. The data set is described as follows: Antimalarial activity against chloroquine, mefloquine, pyrimethamine and atovaquone-resistant Plasmodium falciparum TM90-C2B infected in human A positive erythrocytes after 72 hrs by SYBR Green I assay. It is filed as functional, organism-based.
The nature of data set [2]: Partition coefficient, log D of the compound at pH 7.4 by HPLC analysis. The conditions noted are these: octanol/water.
Data set [3] can be described thus: Aqueous solubility of compound at pH 7.4 by HPLC analysis. The conditions noted are these: buffer.
A short description of data set [4]: Permeability of the compound by PAMPA method at pH 7.4. Type of data set: ADME. Particulars: read-out: permeability. A general note: PAMPA measures passive passage across an artificial lipid membrane.
The subject of data set [5] is Plasmodium falciparum. As to the kind of experiment: Antimalarial activity against chloroquine and pyrimethamine-resistant Plasmodium falciparum W2 infected in human A positive erythrocytes after 72 hrs by SYBR Green I assay. It is filed as functional, organism-based. Particulars: W2, 72 h.
Data set [6] in a line: (§1) Stability in mouse liver microsomes. Type of data set: ADME, Microsome. Particulars: liver microsomes. For orientation: Microsomes from liver hold many membrane-bound enzymes, among them those of drug oxidation.
Data set [7] in a line: Cytotoxicity index, ratio of EC50 for mouse J774 cells to EC50 for chloroquine, mefloquine, pyrimethamine and atovaquone-resistant Plasmodium falciparum TM90-C2B. Type of data set: cell-based. Particulars: read-out: Ratio EC50.
The subject of another data set is J774. The data set is described as follows: Cytotoxicity against mouse J774 cells after 72 hrs by Cell titer 96 aqueous one solution cell proliferation assay. Type of data set: cell-based. Particulars: J774, 72 h.
The subject of data set [8] is Plasmodium falciparum. The data set is described as follows: Resistance index, ratio of EC50 for chloroquine, mefloquine, pyrimethamine and atovaquone-resistant Plasmodium falciparum TM90-C2B to EC50 for chloroquine and pyrimethamine-resistant Plasmodium falciparum W2. It is filed as functional.
A further data set deals with Liver. The data set is described as §1. It is filed as ADME, Microsome. Particulars: microsomes.
The test system of data set [9] is Plasmodium falciparum. The data set is described as follows: Antimalarial activity against Plasmodium falciparum D6 infected in human A positive erythrocytes after 72 hrs by SYBR Green I assay. It is filed as functional, organism-based. Particulars: D6, 72 h.

SMILES strings stand for the structures. Values after ≈ are worked out from the molar mass of the structure shown.

Regarding `COc1ccc2c(=O)c3c([nH]c2c1)CCC(C)(C)C3`, the results for the EC50 with Plasmodium falciparum [1], with Plasmodium falciparum [5] and in the data set with J774 were 175 nM, 54.3 nM and greater than 40 µM, respectively. For the same compound, the logD (as a rule, lipophilicity at a set pH, counting ionised and neutral species) in [2] came to 2.2. Also, the concentration in solution in data set [3] (solubility) came to 61 µM (≈ 15.7 µg/mL). Besides, in [4], the Papp stood at 88 ×10⁻⁶ cm/s. Moreover, the half-life (as a rule, the time in which the quantity being followed falls by half) in data set [6] worked out at 77 min. The selectivity ratio in data set [7] is no less than 100. Further, the “Ratio EC50” value with Plasmodium falciparum [8] stood at 3.22.

`COc1ccc2c(=O)c3c([nH]c2c1)CC(C)(C)CC3`: the EC50 (commonly the concentration needed to bring the measured effect to its halfway point) in the data set on Plasmodium falciparum [1] is 112 nM; in the data set on Plasmodium falciparum [5] it was 355 nM; with J774 it was greater than 40 µM. In data set [2], this compound registered a logD of 2.2. The solubility (as a rule, the dissolved amount per volume that the medium holds) in data set [3] was 92 µM (≈ 23.7 µg/mL). Also, in data set [4], the Papp stood at 64 ×10⁻⁶ cm/s. This compound gave a half-life in [6] of 24.8 min. In addition, the selectivity ratio in data set [7] was no less than 100. Further, the “Ratio EC50” value with Plasmodium falciparum [8] is recorded as 0.32.

`Cc1cc(Oc2ccc(OC(F)(F)F)cc2)ccc1-c1ccc2[nH]c3c(c(=O)c2c1)CSCC3`: the EC50 was 326 nM in the data set on Plasmodium falciparum [1], 27.7 nM with Plasmodium falciparum [5] and greater than 5 µM in the data set with J774. The same compound registered a logD in data set [2] of 3.6. In [3], this compound had a solubility of 7 µM (≈ 3.38 µg/mL). The Papp in data set [4] is less than 1 ×10⁻⁶ cm/s. This compound also showed a half-life in data set [6] of 15.1 min. Moreover, the selectivity ratio in data set [7] was no less than 100. Moreover, the “Ratio EC50” value in the data set on Plasmodium falciparum [8] is 11.8.

For the compound `O=c1c2c([nH]c3ccc(-c4ccc(C(F)(F)F)cc4)cc13)CCSC2`, the EC50 with Plasmodium falciparum [1] was 293 nM; in the data set with Plasmodium falciparum [5], 101 nM; in the data set on J774 it was greater than 10 µM. Further, in data set [2], the logD stood at 2.4. This compound gave a solubility in data set [3] of 10 µM (≈ 3.61 µg/mL). Further, in data set [4], the Papp is less than 1 ×10⁻⁶ cm/s. This compound also returned a half-life in data set [6] of 11.2 min. The selectivity ratio in data set [7] is no less than 100. For the same compound, in the data set with Plasmodium falciparum [8], the “Ratio EC50” value turned out to be 2.9.

Turning to `O=c1c2c([nH]c3ccc(-c4ccc(C(F)(F)F)cc4)cc13)CCCC2`, the EC50 in the data set on Plasmodium falciparum [1] was 44.9 nM; in the data set with Plasmodium falciparum [5], 58.2 nM; with J774, greater than 2 µM. Further, the logD in [2] came out at 3.6. In addition, the concentration in solution in data set [3] (solubility) came to 2 µM (≈ 0.687 µg/mL). The Papp in [4] turned out to be 36 ×10⁻⁶ cm/s. In addition, the Stability result in the data set on Liver was “Stable”. Besides, the selectivity ratio in [7] was no less than 100. Also, in the data set with Plasmodium falciparum [8], the “Ratio EC50” value was determined as 0.77.

For `O=c1c2c([nH]c3cc(-c4ccc(C(F)(F)F)cc4)ccc13)CCCC2`, the values for the 50% effective concentration (EC50) with Plasmodium falciparum [1], with Plasmodium falciparum [5] and in the data set with J774 were 8.7 nM, 34.9 nM and greater than 2 µM, respectively. The logD in [2] turned out to be 2.45. In addition, the concentration in solution in data set [3] (solubility) was 3 µM (≈ 1.03 µg/mL). Further, in [4], the Papp turned out to be 250 ×10⁻⁶ cm/s. Further, the Stability entry with Liver was “Stable”. In data set [7], the selectivity ratio was no less than 100. The “Ratio EC50” value with Plasmodium falciparum [8] is listed as 0.24.

Regarding `O=c1c2c([nH]c3cc(-c4ccc(Oc5ccc(OC(F)(F)F)cc5)cc4)ccc13)CCCC2`, the EC50 is 9.1 nM in the data set with Plasmodium falciparum [1], 12.2 nM with Plasmodium falciparum [5] and greater than 0.1 µM in the data set with J774. This compound returned a logD in data set [2] of 3.8. This compound also showed a solubility in data set [3] of 0.1 µM (≈ 0.0451 µg/mL). For the same compound, the Papp in [4] was found to be 18 ×10⁻⁶ cm/s. Further, in data set [6], the half-life was determined as 173 min. Further, the selectivity ratio in [7] is no less than 100. The “Ratio EC50” value in the data set on Plasmodium falciparum [8] came out at 0.75.

With `O=c1c2c([nH]c3cc(F)cc(F)c13)CCCC2`, the results for the EC50 in the data set on Plasmodium falciparum [1], in the data set with Plasmodium falciparum [5] and with J774 were 45 nM, 16.5 nM and greater than 2 µM, respectively. In data set [2], this compound gave a logD of 1.5. Besides, the solubility in [3] was determined as 3 µM (≈ 0.706 µg/mL). For the same compound, the Papp in [4] amounted to 13 ×10⁻⁶ cm/s. The compound further displayed a half-life in data set [6] of 3.6 min. Moreover, the selectivity ratio in [7] was no less than 100. Further, the “Ratio EC50” value with Plasmodium falciparum [8] was 2.72.

On to `COc1cc2[nH]c3c(c(=O)c2cc1Cl)CC(F)(F)CC3`, for which the EC50 is 5.6 nM in the data set with Plasmodium falciparum [1], 76.7 nM in the data set with Plasmodium falciparum [5] and greater than 10 µM in the data set on J774. Also, the logD in data set [2] turned out to be 2.1. The solubility in data set [3] came out at 10 µM (≈ 3 µg/mL). Besides, the Papp in data set [4] worked out at 107 ×10⁻⁶ cm/s. The same compound had a half-life in [6] of 8.5 min. For the same compound, in [7], the selectivity ratio is no less than 100. Besides, in the data set with Plasmodium falciparum [8], the “Ratio EC50” value came out at 0.07.

Consider `O=c1c2c([nH]c3ccc(Cl)cc13)CCC(F)(F)C2`, for which the EC50 is 226 nM in the data set with Plasmodium falciparum [1], 148 nM in the data set on Plasmodium falciparum [5] and greater than 2 µM in the data set with J774. The same compound had a logD in data set [2] of 2. The compound also showed a solubility in [3] of 4 µM (≈ 1.08 µg/mL). In addition, the Papp in [4] amounted to 62 ×10⁻⁶ cm/s. In [6], this compound showed a half-life of 40.8 min. Further, the selectivity ratio in [7] is no less than 100. In addition, in the data set on Plasmodium falciparum [8], the “Ratio EC50” value stood at 1.52.

Turning to `COc1ccc2c(=O)c3c([nH]c2c1)CCC(F)(F)C3`, the figures for the EC50 in the data set with Plasmodium falciparum [1], in the data set with Plasmodium falciparum [5] and with J774 were 351 nM, 343 nM and greater than 10 µM, respectively. For the same compound, the logD in data set [2] came to 1.6. Moreover, the concentration in solution in [3] (solubility) came to 14 µM (≈ 3.71 µg/mL). The Papp in [4] is 39 ×10⁻⁶ cm/s. Besides, in data set [6], the half-life worked out at 15.8 min. For the same compound, in data set [7], the selectivity ratio was no less than 100. For the same compound, the “Ratio EC50” value in the data set with Plasmodium falciparum [8] is 1.02.

As to `COc1cc2[nH]c3c(c(=O)c2cc1Cl)CS(=O)(=O)CC3`, the EC50 in the data set on Plasmodium falciparum [1] is 8410 nM; in the data set on Plasmodium falciparum [5] it was 4710 nM; in the data set on J774 it was greater than 20 µM. This compound also showed a logD in data set [2] of 1. This compound also came in with a solubility in [3] of 24 µM (≈ 7.53 µg/mL). For the same compound, the Stability entry in the data set with Liver is given as “Stable”. The selectivity ratio in data set [7] was no less than 100. In addition, in the data set on Plasmodium falciparum [8], the “Ratio EC50” value was determined as 1.76.

Take `Cc1cc(Cl)ccc1-c1ccc2[nH]c3c(c(=O)c2c1)CSCC3`: the 50% effective concentration (EC50) in the data set with Plasmodium falciparum [1] is 23.2 nM; in the data set on Plasmodium falciparum [5], 34.6 nM; in the data set on J774, greater than 2 µM. In [2], this compound registered a logD of 2.4. Further, in data set [3], the solubility amounted to 2 µM (≈ 0.684 µg/mL). The Papp in data set [4] was less than 1 ×10⁻⁶ cm/s. Moreover, the half-life in data set [6] is 8.4 min. Further, the selectivity ratio in data set [7] is no less than 100. The “Ratio EC50” value in the data set on Plasmodium falciparum [8] worked out at 0.67.

With `O=C1CC(c2ccc(C(F)(F)F)cc2)Cc2c1c(=O)c1cc(Cl)ccc1n2O` (centres undefined) [FLOXACRINE], the EC50 worked out at 478 nM with Plasmodium falciparum [5] and 270 nM in the data set with Plasmodium falciparum [9]. Besides, in data set [7], the selectivity ratio is no less than 100.
